{
  "source": "patent US20100203531A1",
  "about": "“PREDICTING RESPONSIVENESS TO TEMOZOLOMIDE” (priority 2007, published 2010)",
  "assay_type_in_all_cases": "in vivo, human",
  "key": {"GBM6 xenograft": {"system": "GBM6 xenograft", "assay": "Orthotopic intracranial xenograft survival, GBM6", "experimental": "(§1) In vivo sensitivity of GBM lines to TMZ: To address whether MGMT methylation or polypeptide expression status are predictive of TMZ responsiveness, the effects of TMZ therapy on survival were evaluated in the panel of xenografts using an orthotopic therapy model. […] This TMZ dosing regimen provides the equivalent dose-exposure to TMZ as the standard adjuvant TMZ dosing regimen for GBM patients of 200 mg/m^2×5 days. All mice were followed until reaching a moribund state, and the relative prolongation of survival following TMZ treatment was calculated for each line relative to placebo treatment (Table 1). […] Further analysis of the relationship between TMZ responsiveness and MGMT methylation status in 17 xenograft lines was conducted by comparing the distribution of median survival prolongation results for methylation-positive and methylation-negative groups of xenografts. From this analysis, MGMT methylation was modestly associated with increased TMZ sensitivity (FIG. 2, p=0.039, two-sample rank sum test). In a similar analysis of MGMT polypeptide expression levels, high levels of MGMT polypeptide expression were invariably associated with relative TMZ resistance, and the absence of MGMT polypeptide expression was associated with significant TMZ sensitivity (r=−0.73, p=0.005). […] While p53, PTEN and EGFR function have been linked to TMZ sensitivity in some models, no correlation between genetic alterations of these genes and TMZ responsiveness was observed.\n(§2) Orthotopic model: Therapy evaluations were conducted using an orthotopic tumor model as described elsewhere (Sarkaria et al., Clin Cancer Res, 12:2264-2271 (2006), Giannini et al., Neuro-Oncology, 7:164-176, (2005)). Athymic nude mice (NCI, Frederick, Md.) with established intracranial tumors were randomized into groups of 8 to 10 mice each and treatment was initiated 2 weeks before mice were expected to become moribund. TMZ was purchased from the Mayo Clinic Pharmacy, suspended in Ora-plus (Paddock Laboratories, Minneapolis. […] Mice were observed daily and euthanized when moribund.\n(§3) Statistical analysis: Survival distributions were estimated using the Kaplan-Meier method. The log rank test was used to compare survival across treatment groups. All GBM experiments were pooled and Classification and Regression Tree analysis (CART) was used to identify which CpG sites in the MS-PCR assay (CpG sites 78-82, 86-89) were predictive of overall survival in TMZ treated mice. The two-sample rank sum test was used to compare relative differences in survival relative to MGMT MS-PCR status or CpG89 methylation status. Spearman's correlation coefficient was used to assess the association of relative median survival and protein expression levels of MGMT relative to 13-actin."}, "GBM10 xenograft": {"system": "GBM10 xenograft", "assay": "Orthotopic intracranial xenograft survival, GBM10", "experimental": "(§4) In vivo sensitivity of GBM lines to TMZ: To address whether MGMT methylation or polypeptide expression status are predictive of TMZ responsiveness, the effects of TMZ therapy on survival were evaluated in the panel of xenografts using an orthotopic therapy model. Mice with established intracranial xenografts were treated with 66 mg/kg TMZ or placebo daily for 5 days by oral gavage. This TMZ dosing regimen provides the equivalent dose-exposure to TMZ as the standard adjuvant TMZ dosing regimen for GBM patients of 200 mg/m^2×5 days. All mice were followed until reaching a moribund state, and the relative prolongation of survival following TMZ treatment was calculated for each line relative to placebo treatment (Table 1). […] Further analysis of the relationship between TMZ responsiveness and MGMT methylation status in 17 xenograft lines was conducted by comparing the distribution of median survival prolongation results for methylation-positive and methylation-negative groups of xenografts. From this analysis, MGMT methylation was modestly associated with increased TMZ sensitivity (FIG. 2, p=0.039, two-sample rank sum test). In a similar analysis of MGMT polypeptide expression levels, high levels of MGMT polypeptide expression were invariably associated with relative TMZ resistance, and the absence of MGMT polypeptide expression was associated with significant TMZ sensitivity (r=−0.73, p=0.005). […] While p53, PTEN and EGFR function have been linked to TMZ sensitivity in some models, no correlation between genetic alterations of these genes and TMZ responsiveness was observed.\nas §2, §3"}, "GBM12 xenograft": {"system": "GBM12 xenograft", "assay": "Orthotopic intracranial xenograft survival, GBM12", "experimental": "as §4, §2, §3"}, "GBM16 xenograft": {"system": "GBM16 xenograft", "assay": "Orthotopic intracranial xenograft survival, GBM16", "conditions": "for Survival Prolongation: median survival relative to placebo, 66 mg/kg oral for 5 days (Table 3), 66 mg/kg", "experimental": "as §4\n(§5) Orthotopic model: Therapy evaluations were conducted using an orthotopic tumor model as described elsewhere (Sarkaria et al., Clin Cancer Res, 12:2264-2271 (2006), Giannini et al., Neuro-Oncology, 7:164-176, (2005)). Athymic nude mice (NCI, Frederick, Md.) with established intracranial tumors were randomized into groups of 8 to 10 mice each and treatment was initiated 2 weeks before mice were expected to become moribund. TMZ was purchased from the Mayo Clinic Pharmacy, suspended in Ora-plus (Paddock Laboratories, Minneapolis. MN), and administered by oral gavage at 66 mg/kg for 5 days. Mice were observed daily and euthanized when moribund.\nas §3"}, "GBM22 / GS22 xenograft": {"system": "GBM22 / GS22 xenograft", "assay": "Orthotopic intracranial xenograft survival, GBM22 (GS22)", "experimental": "as §4, §5\n(§6) Statistical analysis: Survival distributions were estimated using the Kaplan-Meier method. The log rank test was used to compare survival across treatment groups. All GBM experiments were pooled and Classification and Regression Tree analysis (CART) was used to identify which CpG sites in the MS-PCR assay (CpG sites 78-82, 86-89) were predictive of overall survival in TMZ treated mice. The two-sample rank sum test was used to compare relative differences in survival relative to MGMT MS-PCR status or CpG89 methylation status. […]"}, "GBM28 / GS28 xenograft": {"system": "GBM28 / GS28 xenograft", "assay": "Orthotopic intracranial xenograft survival, GBM28 (GS28)", "experimental": "as §4, §5, §6"}, "GBM44 xenograft": {"system": "GBM44 xenograft", "assay": "Orthotopic intracranial xenograft survival, GBM44", "experimental": "as §1, §2, §3"}},
  "data": [
    {"smiles": "Cn1nnc2c(C(N)=O)ncn2c1=O", "note": "[TMZ, Temozolomide]", "values": [
      {"measurement": "Survival Prolongation", "setting": "GBM6 xenograft; GBM6, median survival relative to placebo, 66 mg/kg oral for 5 days (Table 3)", "value": 37, "unit": "%"},
      {"measurement": "Survival benefit", "setting": "GBM6 xenograft; GBM6, prolongation of median survival relative to placebo, TMZ 66 mg/kg oral x5 days", "value": 37, "unit": "%"},
      {"measurement": "Survival benefit", "setting": "GBM6 xenograft; GBM6 generation 20, TMZ 120 mg/kg for 5 days, intracranial", "value": 67, "unit": "%"},
      {"measurement": "Survival benefit", "setting": "GBM6 xenograft; GBM6 generation 24, TMZ 66 mg/kg for 5 days, intracranial", "value": 21, "unit": "%"},
      {"measurement": "TMZ median survival", "setting": "GBM6 xenograft; GBM6 intracranial xenograft, nude mice, TMZ 66 mg/kg oral daily x5 days", "value": 56},
      {"measurement": "Temozolomide median survival", "setting": "GBM6 xenograft; GBM6 intracranial, athymic nude mice, 66 mg/kg oral gavage for 5 days (Table 3)", "value": 56},
      {"measurement": "Survival Prolongation", "setting": "GBM10 xenograft; GBM10, median survival relative to placebo, 66 mg/kg oral for 5 days (Table 3)", "value": 34, "unit": "%"},
      {"measurement": "Survival benefit", "setting": "GBM10 xenograft; GBM10, prolongation of median survival relative to placebo, TMZ 66 mg/kg oral x5 days", "value": 34, "unit": "%"},
      {"measurement": "Survival benefit", "setting": "GBM10 xenograft; GBM10 generation 8, TMZ 120 mg/kg for 5 days, intracranial", "value": 6, "unit": "%"},
      {"measurement": "Survival benefit", "setting": "GBM10 xenograft; GBM10 generation 19, TMZ 66 mg/kg for 5 days, intracranial", "value": 34, "unit": "%"},
      {"measurement": "TMZ median survival", "setting": "GBM10 xenograft; GBM10 intracranial xenograft, nude mice, TMZ 66 mg/kg oral daily x5 days", "value": 55},
      {"measurement": "Temozolomide median survival", "setting": "GBM10 xenograft; GBM10 intracranial, athymic nude mice, 66 mg/kg oral gavage for 5 days (Table 3)", "value": 55},
      {"measurement": "Survival Prolongation", "setting": "GBM12 xenograft; GBM12, median survival relative to placebo, 66 mg/kg oral for 5 days (Table 3)", "value": 253, "unit": "%"},
      {"measurement": "Survival benefit", "setting": "GBM12 xenograft; GBM12, prolongation of median survival relative to placebo, TMZ 66 mg/kg oral x5 days", "value": 253, "unit": "%"},
      {"measurement": "Survival benefit", "setting": "GBM12 xenograft; GBM12 generation 10, TMZ 120 mg/kg for 5 days, intracranial", "value": 268, "unit": "%"},
      {"measurement": "Survival benefit", "setting": "GBM12 xenograft; GBM12 generation 30, TMZ 66 mg/kg for 5 days, intracranial", "value": 164, "unit": "%"},
      {"measurement": "TMZ median survival", "setting": "GBM12 xenograft; GBM12 intracranial xenograft, nude mice, TMZ 66 mg/kg oral daily x5 days", "value": 53},
      {"measurement": "Temozolomide median survival", "setting": "GBM12 xenograft; GBM12 intracranial, athymic nude mice, 66 mg/kg oral gavage for 5 days (Table 3)", "value": 53},
      {"measurement": "Survival Prolongation", "setting": "GBM16 xenograft; GBM16", "value": 579, "unit": "%"},
      {"measurement": "Survival Prolongation", "setting": "GBM16 xenograft; GBM16, listed as Temozolomide", "value": 579, "unit": "%"},
      {"measurement": "Survival benefit", "setting": "GBM16 xenograft; GBM16, prolongation of median survival relative to placebo, TMZ 66 mg/kg oral x5 days", "value": 579, "unit": "%"},
      {"measurement": "TMZ median survival", "setting": "GBM16 xenograft; GBM16 intracranial xenograft, nude mice, TMZ 66 mg/kg oral daily x5 days", "value": 300},
      {"measurement": "Temozolomide median survival", "setting": "GBM16 xenograft; GBM16 intracranial, athymic nude mice, 66 mg/kg oral gavage for 5 days (Table 3)", "value": 326},
      {"measurement": "Survival benefit", "setting": "GBM22 / GS22 xenograft; GBM22, prolongation of median survival relative to placebo, TMZ 66 mg/kg oral x5 days", "value": 260, "unit": "%"},
      {"measurement": "TMZ median survival", "setting": "GBM22 / GS22 xenograft; GBM22 intracranial xenograft, nude mice, TMZ 66 mg/kg oral daily x5 days", "value": 124},
      {"measurement": "Survival Prolongation", "setting": "GBM22 / GS22 xenograft; GS22, median survival relative to placebo, 66 mg/kg oral for 5 days (Table 3)", "value": 260, "unit": "%"},
      {"measurement": "Temozolomide median survival", "setting": "GBM22 / GS22 xenograft; GS22 intracranial, athymic nude mice, 66 mg/kg oral gavage for 5 days (Table 3)", "value": 155},
      {"measurement": "Survival benefit", "setting": "GBM28 / GS28 xenograft; GBM28, prolongation of median survival relative to placebo, TMZ 66 mg/kg oral x5 days", "value": 70, "unit": "%"},
      {"measurement": "TMZ median survival", "setting": "GBM28 / GS28 xenograft; GBM28 intracranial xenograft, nude mice, TMZ 66 mg/kg oral daily x5 days", "value": 56},
      {"measurement": "Survival Prolongation", "setting": "GBM28 / GS28 xenograft; GS28, median survival relative to placebo, 66 mg/kg oral for 5 days (Table 3)", "value": 70, "unit": "%"},
      {"measurement": "Temozolomide median survival", "setting": "GBM28 / GS28 xenograft; GS28 intracranial, athymic nude mice, 66 mg/kg oral gavage for 5 days (Table 3)", "value": 56},
      {"measurement": "Survival Prolongation", "setting": "GBM44 xenograft; GBM44, median survival relative to placebo, 66 mg/kg oral for 5 days (Table 3)", "value": 60, "unit": "%"},
      {"measurement": "Survival benefit", "setting": "GBM44 xenograft; GBM44, prolongation of median survival relative to placebo, TMZ 66 mg/kg oral x5 days", "value": 60, "unit": "%"},
      {"measurement": "Survival benefit", "setting": "GBM44 xenograft; GBM44 generation 5, TMZ 120 mg/kg for 5 days, intracranial", "value": "−7", "unit": "%"},
      {"measurement": "Survival benefit", "setting": "GBM44 xenograft; GBM44 generation 12, TMZ 66 mg/kg for 5 days, intracranial", "value": 60, "unit": "%"},
      {"measurement": "TMZ median survival", "setting": "GBM44 xenograft; GBM44 intracranial xenograft, nude mice, TMZ 66 mg/kg oral daily x5 days", "value": 56},
      {"measurement": "Temozolomide median survival", "setting": "GBM44 xenograft; GBM44 intracranial, athymic nude mice, 66 mg/kg oral gavage for 5 days (Table 3)", "value": 56}
    ]}
  ]
}
